Reference: ChEMBL document CHEMBL1128078, “Evaluation of substituted benzamides as P2 ligands for symmetry-based inhibitors of HIV protease” (Bioorg Med Chem Lett, 1995)

What was measured:
[1] = system: Human immunodeficiency virus 1; assay: Anti-HIV activity against MT-4 cells using a cytopathicity assay; format: functional, organism-based; conditions: Human immunodeficiency virus 1, MT4
[2] = target: Human immunodeficiency virus type 1 protease (Human immunodeficiency virus 1, UniProt Q72874); assay: Inhibitory activity against purified HIV protease
MT4 [3] = assay: Cytotoxicity against MT-4 cells using a cytopathicity assay.; format: functional, Homo sapiens
MT4 [4] = assay: Anti-HIV activity was determined against MT-4 cells using a cytopathicity assay; NE means no effect; format: functional, cell-based, Homo sapiens

O=C(N[C@@H](Cc1ccccc1)[C@@H](O)C[C@H](Cc1ccccc1)NC(=O)c1ccccc1)OCc1ccccc1
EC50 [1]: > 10000 nM | IC50 [2]: 31 nM | CCIC50 (MT4 [3]): >100 µM

CC(C)(C)OC(=O)N[C@@H](Cc1ccccc1)C[C@H](O)[C@H](Cc1ccccc1)NC(=O)c1ccc(N)c(N)c1
EC50 [1]: 7600 nM | IC50 [2]: 9.6 nM | CCIC50 (MT4 [3]): 81 µM

CC(C)(C)OC(=O)N[C@@H](Cc1ccccc1)C[C@H](O)[C@H](Cc1ccccc1)NC(=O)c1ccc(N)cc1Cl
EC50 [1]: 2900 nM | IC50 [2]: 3.4 nM | CCIC50 (MT4 [3]): 48 µM

Cc1c(N)cccc1C(=O)N[C@@H](Cc1ccccc1)[C@@H](O)C[C@H](Cc1ccccc1)NC(=O)OC(C)(C)C
EC50 [1]: 1400 nM | IC50 [2]: 2.6 nM | CCIC50 (MT4 [3]): 56 µM

CC(C)(C)OC(=O)N[C@@H](Cc1ccccc1)C[C@H](O)[C@H](Cc1ccccc1)NC(=O)c1cc(O)ccc1Cl
EC50 [1]: 3700 nM | IC50 [2]: 12 nM | CCIC50 (MT4 [3]): 19 µM

CC(C)(C)OC(=O)N[C@@H](Cc1ccccc1)C[C@H](O)[C@H](Cc1ccccc1)NC(=O)c1ccc(O)cc1Cl
EC50 [1]: 1800 nM | IC50 [2]: 1.4 nM | CCIC50 (MT4 [3]): 23 µM

CC(C)(C)OC(=O)N[C@@H](Cc1ccccc1)C[C@H](O)[C@H](Cc1ccccc1)NC(=O)c1ccc(O)cc1
EC50 [1]: 4800 nM | IC50 [2]: 3.3 nM | CCIC50 (MT4 [3]): 29 µM

COc1cc(C(=O)N[C@@H](Cc2ccccc2)[C@@H](O)C[C@H](Cc2ccccc2)NC(=O)OC(C)(C)C)ccc1O
EC50 [1]: 2800 nM | IC50 [2]: 3.3 nM | CCIC50 (MT4 [3]): 43 µM

Nc1ccc(C(=O)N[C@@H](Cc2ccccc2)C[C@H](O)[C@H](Cc2ccccc2)NC(=O)OCc2ccccc2)c(Cl)c1
EC50 [1]: > 10000 nM | IC50 [2]: 6.1 nM | CCIC50 (MT4 [3]): 15 µM

COc1cccc(C(=O)N[C@@H](Cc2ccccc2)[C@@H](O)C[C@H](Cc2ccccc2)NC(=O)OC(C)(C)C)c1
EC50 [1]: > 10000 nM | IC50 [2]: 23 nM | CCIC50 (MT4 [3]): 19 µM

Nc1ccc(C(=O)N[C@@H](Cc2ccccc2)C[C@H](O)[C@H](Cc2ccccc2)NC(=O)OCc2ccccc2)cc1O
EC50 [1]: > 10000 nM | IC50 [2]: 22 nM | CCIC50 (MT4 [3]): 18 µM

O=C(N[C@@H](Cc1ccccc1)[C@@H](O)C[C@H](Cc1ccccc1)NC(=O)c1ccc(O)cc1Cl)OCc1ccccc1
EC50 [1]: 2200 nM | IC50 [2]: 1.3 nM | CCIC50 (MT4 [3]): 18 µM

CC(C)(C)OC(=O)N[C@@H](Cc1ccccc1)C[C@H](O)[C@H](Cc1ccccc1)NC(=O)OC(C)(C)C
IC50 [2]: 5.3 nM

CC(C)(C)OC(=O)N[C@@H](Cc1ccccc1)C[C@H](O)[C@H](Cc1ccccc1)NC(=O)c1ccccc1
EC50 [1]: 4300 nM | IC50 [2]: 4.5 nM | CCIC50 (MT4 [3]): 16 µM

CC(C)(C)OC(=O)N[C@@H](Cc1ccccc1)C[C@H](O)[C@H](Cc1ccccc1)NC(=O)c1cc(N)cc(N)c1
EC50 (MT4 [4]): Not Active | IC50 [2]: 250 nM | CCIC50 (MT4 [3]): 92 µM

COc1cc(C(=O)N[C@@H](Cc2ccccc2)C[C@H](O)[C@H](Cc2ccccc2)NC(=O)OCc2ccccc2)ccc1N
EC50 [1]: > 8000 nM | IC50 [2]: 10.5 nM | CCIC50 (MT4 [3]): 18 µM

Cc1c(O)cccc1C(=O)N[C@@H](Cc1ccccc1)[C@@H](O)C[C@H](Cc1ccccc1)NC(=O)OC(C)(C)C
EC50 [1]: 1200 nM | IC50 [2]: 1.6 nM | CCIC50 (MT4 [3]): 47 µM

CC(C)(C)OC(=O)N[C@@H](Cc1ccccc1)C[C@H](O)[C@H](Cc1ccccc1)NC(=O)c1ccccc1O
EC50 [1]: > 75000 nM | IC50 [2]: 145 nM | CCIC50 (MT4 [3]): >100 µM

CC(C)(C)OC(=O)N[C@@H](Cc1ccccc1)C[C@H](O)[C@H](Cc1ccccc1)NC(=O)c1cc(O)cc(O)c1
EC50 [1]: 11000 nM | IC50 [2]: 51 nM | CCIC50 (MT4 [3]): 53 µM

CC(C)(C)OC(=O)N[C@@H](Cc1ccccc1)C[C@H](O)[C@H](Cc1ccccc1)NC(=O)c1c(Cl)cccc1Cl
EC50 [1]: > 10000 nM | IC50 [2]: 67 nM | CCIC50 (MT4 [3]): 19 µM

CC(C)(C)OC(=O)N[C@@H](Cc1ccccc1)C[C@H](O)[C@H](Cc1ccccc1)NC(=O)c1cccc(N)c1Cl
EC50 [1]: 3100 nM | IC50 [2]: 5.3 nM | CCIC50 (MT4 [3]): 55 µM

CC(C)(C)OC(=O)N[C@@H](Cc1ccccc1)C[C@H](O)[C@H](Cc1ccccc1)NC(=O)c1cc(N)ccc1Cl
EC50 [1]: 1800 nM | IC50 [2]: 3.3 nM | CCIC50 (MT4 [3]): >100 µM

CC(C)c1nc(CN(C)C(=O)N[C@H](C(=O)N[C@@H](Cc2ccccc2)C[C@H](O)[C@H](Cc2ccccc2)NC(=O)OCc2cncs2)C(C)C)cs1 [RITONAVIR]
EC50 [1]: 22 nM

CC(C)(C)OC(=O)N[C@@H](Cc1ccccc1)C[C@H](O)[C@H](Cc1ccccc1)NC(=O)c1c(Cl)ccc(N)c1Cl
IC50 [2]: 31 nM

CC(C)(C)OC(=O)N[C@@H](Cc1ccccc1)C[C@H](O)[C@H](Cc1ccccc1)NC(=O)c1cccc(O)c1
EC50 [1]: 1600 nM | IC50 [2]: 3.4 nM | CCIC50 (MT4 [3]): 45 µM

O=C(N[C@@H](Cc1ccccc1)C[C@H](O)[C@H](Cc1ccccc1)NC(=O)OCc1ccccc1)OCc1ccccc1
EC50 [1]: > 30000 nM | IC50 [2]: 5.6 nM | CCIC50 (MT4 [3]): >100 µM

CC(C)(C)OC(=O)N[C@@H](Cc1ccccc1)C[C@H](O)[C@H](Cc1ccccc1)NC(=O)c1ccc(O)c(N)c1
EC50 [1]: 5000 nM | IC50 [2]: 7.6 nM | CCIC50 (MT4 [3]): 57 µM

CC(C)(C)OC(=O)N[C@@H](Cc1ccccc1)C[C@H](O)[C@H](Cc1ccccc1)NC(=O)c1ccc(N)c(O)c1
EC50 (MT4 [4]): Not Active | IC50 [2]: 11 nM | CCIC50 (MT4 [3]): 11 µM

CC(C)(C)OC(=O)N[C@@H](Cc1ccccc1)C[C@H](O)[C@H](Cc1ccccc1)NC(=O)c1ccc(O)c(O)c1
EC50 [1]: 2900 nM | IC50 [2]: 4.1 nM | CCIC50 (MT4 [3]): 21 µM

COc1cc(C(=O)N[C@@H](Cc2ccccc2)[C@@H](O)C[C@H](Cc2ccccc2)NC(=O)OC(C)(C)C)ccc1N
EC50 [1]: 3200 nM | IC50 [2]: 7.5 nM | CCIC50 (MT4 [3]): 38 µM
